The source of these data is patent US11028084B2, “Selective inhibitors of gentotoxic steress-induced IKK/NF-κB pathways” (Max-Delbrück-Centrum für Molekulare Medizin in der …, priority 2016, dated 2021).

Assay [1] has as its system TNFα-induced NF-κB activation. Description: NF-κB DNA binding activity (EMSA) after TNFα stimulation, HEK293 cells. Type of assay: cell-based, human. The protocol: FIG. 4: (A) U2OS cells were pre-treated with increasing concentrations of MW01 in triplicates in a 384 well plate. Then, cells were treated with TNFα, fixed and subjected to IF staining of p65. Spatial measurement of p65 cytosolic and nuclear signals was used for the calculation of p65 translocation rates. (B) U2OS cells were pre-treated with MW01 at concentrations of 10 or 20 μM and stimulated with TNFα. Cell lysates were subjected to SDS-PAGE/WB. (C) HEK293 cells were pre-treated with DMSO or MW01 followed by administration of etoposide or TNFα. Cell lysates were used for EMSA.
For the activation of the canonical NF-κB pathway cells were treated with recombinant human TNFα (10 ng/ml) or IL-1β (10 ng/ml) for 20-30 min at 37° C.
Nuclear or whole cell lysates were incubated with a ^32P-labeled NF-κB DNA-[…]
On the technique in general: In EMSA bound probe runs differently from free probe, usually more slowly.

Assay [2] relates to IKKγ phosphorylation at S85. Description: IKKγ S85 phosphorylation after irradiation, WB, HEK293 cells. The conditions noted are these: HEK293 (human). Type of assay: cell-based. As to the method: FIG. 11: (A) HEK293 cells were pre-incubated with DMSO, MW01 or ATM inhibitor KU55933 and irradiated. Lysates were subjected to SDS-PAGE/WB. The specific IKKγ S85 band (lower band) was identified by induction following irradiation and by sensitivity to ATMi and λ-phosphatase (λ-PP) treatment. The asterisk indicates a non-specific band that was neither inducible nor ATMi sensitive. (B) Experiment was done as shown in (A) using MEF cells. (C) HEK293 cells were pre-treated with DMSO or MW01, irradiated and lysed. Lysates were used to immunoprecipitate IKKγ using an IKKγ antibody.

Assay [3] has as its system U2OS cells. Description: Caspase-3-dependent cleavage of PARP1, WB, U2OS cells. Type of assay: cell-based, human. As to the method:
(§1) FIG. 16: (A) U2OS cells were pre-treated with DMSO or MW01 and irradiated. Cells were lysed 8 h post γ-IR and were used for western blotting and immunochemical staining. (B) HEK293 cells were pre-treated with DMSO or MW01 and irradiated. After 48 h cells were fixed and stained with crystal violet. Dissolved crystal violet was used for absorbance measurement in a visible light spectrophotometer at a wavelength of 595 nm. (C) HEK293 cells were pre-treated with DMSO or MW01 and irradiated. The percentage of viable cells within the population was calculated by exclusion of annexin V and propidium-iodide positive cells measured by flow cytometry. (D) MEF cells were pre-treated with DMSO or MW01 and irradiated. Cells were used for annexin V staining 24 h and 48 after γ-IR. Percentage of annexin V positive cell population was analysed using a flow cytometer. (E) Experiment done as shown in (D) but with HT1080 cells processed 8 h after irradiation. Statistical significance was calculated using students t-test.

The test system of assay [4] is HEK293 cells. Kind of assay: Percentage of viable cells, annexin V / propidium-iodide exclusion, flow cytometry, HEK293 cells. Type of assay: cell-based, human. As to the method:
as §1
Cells were washed with ice-cold PBS and detached from growing dishes using Trypsin/EDTA solution. Detached cells were centrifuged at 300×g for 5 min. Detection of early apoptotic cells was performed by staining with annexin V-FITC antibody according to manufacturer's instructions (eBioscience Annexin V-FITC Apoptosis detection Kit). […]
(In flow cytometry, cells or beads pass a laser one at a time.)

For assay [5], the target named is T1, nuclear IKKγ-PIASy-PARP1-ATM signalosome (Mus musculus, UniProt O88522+P11103+Q62388+Q9JM05).
T1 construct: endogenous in cells; host or cells: MEF (mouse embryonic fibroblasts)
Kind of assay: Nuclear PARP1-signalosome formation, IKKγ co-immunoprecipitation, MEF cells. Particulars: irradiation. Type of assay: cell-based. As to the method:
FIG. 8: (A) HepG2 cells were pre-treated with DMSO or MW01 and irradiated. Nuclear cell extracts (NE) were used for PIASy immunoprecipitation (IP). Western blot membranes were incubated with indicated antibodies. (B) Experiment as shown in (A), but with IKKγ IP. (C) Experiment as shown in (B), but done in HEK293 cells. (D) Experiment done as shown in […], but repeated in MEF cells.
Following cell lysis the protein concentration of samples was determined. For input controls, 40 μg lysate were mixed with 6×SDS-buffer and denatured by heating to 95° C. for 4 min. Approximately 1500 μg protein lysate was used for pulldown and samples volumes were equalled with lysis buffer. Lysates were precleared with 30 μl sepharose A or sepharose G beads (depending on the antibody type used for pulldown) for 30 min, and centrifuged for 5 min at 1,500×g. The supernatant was transferred to a new reaction tube. Primary antibody (2-2.5 μg) was added to the cleared lysate for immunoprecipitation overnight while rotating at 4° C. The next day 30 μl sepharose beads per sample were used for immobilisation of antibodies. Following 4 washes with IP wash buffer precipitated proteins were eluted by mixing with 3×SDS-buffer and heating to 95° C. for 4 min.

Assay [6] deals with PARP1 (Homo sapiens, UniProt P09874). Kind of assay: PARP1 enzymatic activity, PAR chain formation, U2OS cells. Particulars: γ-irradiation. Further details: Experiment performed as described for (A), but using U2OS cells; endogenous in cells; host or cells: U2OS. Type of assay: cell-based. As to the method:
FIG. 10: (A) MEF cells were pre-treated with the indicated substances, irradiated and cell lysates were used for poly(ADP)-ribose probing using a specific antibody. (B) Experiment performed as described for (A), but using U2OS cells.
FIG. 14: (A) U2OS cells were pre-treated with different concentrations of olaparib prior to co-treatment with etoposide. Whole cell lysis was performed after 90 min and cleared lysates were used for WB with indicated antibodies. (B) U2OS cells were pre-treated with DMSO, olaparib or the ATM inhibitor Ku55933 and co-treated with etoposide. Cells were harvested after 45 min and subjected to SDS-PAGE/WB. Membranes were stained with the indicated antibodies. The experiment of (B) was performed simultaneously to the experiments of (A) and (E) to control functionality of olaparib in inhibiting PAR chain formation. (C) Densitometrical analyses of (A) and two further independent experiments done as shown in (A). (D) U2OS cells were pre-treated with the substances as indicated prior to irradiation. After 90 min mRNA was isolated, transcribed into cDNA and was used for expression analyses of the indicated genes using quantitative real-time PCR (qRT-PCR). (E) HepG2 cells were pre-treated with the PARP inhibitors olaparib, 3-AB and EB-47 prior to γ-irradiation. Cells were harvested after 15 and 90 min and subjected to SDS-PAGE/WB. […]

Assay [7] relates to HT1080 cells. Kind of assay: Annexin V staining, flow cytometry, HT1080 cells. Type of assay: cell-based. The conditions noted are these: HT1080, 10 Gy. As to the method: as §1
Cells were washed with ice-cold PBS and detached from growing dishes using Trypsin/EDTA solution. Detached cells were centrifuged at 300×g for 5 min. […]
In addition, the sensitising effect of NF-κB inhibition was tested in HT1080 cells. After pre-treatment with DMSO or MW01, cells were irradiated with a dose of 10 Gy and analysed by annexin V staining.

Chain of PARP1 (P09874 whole entry): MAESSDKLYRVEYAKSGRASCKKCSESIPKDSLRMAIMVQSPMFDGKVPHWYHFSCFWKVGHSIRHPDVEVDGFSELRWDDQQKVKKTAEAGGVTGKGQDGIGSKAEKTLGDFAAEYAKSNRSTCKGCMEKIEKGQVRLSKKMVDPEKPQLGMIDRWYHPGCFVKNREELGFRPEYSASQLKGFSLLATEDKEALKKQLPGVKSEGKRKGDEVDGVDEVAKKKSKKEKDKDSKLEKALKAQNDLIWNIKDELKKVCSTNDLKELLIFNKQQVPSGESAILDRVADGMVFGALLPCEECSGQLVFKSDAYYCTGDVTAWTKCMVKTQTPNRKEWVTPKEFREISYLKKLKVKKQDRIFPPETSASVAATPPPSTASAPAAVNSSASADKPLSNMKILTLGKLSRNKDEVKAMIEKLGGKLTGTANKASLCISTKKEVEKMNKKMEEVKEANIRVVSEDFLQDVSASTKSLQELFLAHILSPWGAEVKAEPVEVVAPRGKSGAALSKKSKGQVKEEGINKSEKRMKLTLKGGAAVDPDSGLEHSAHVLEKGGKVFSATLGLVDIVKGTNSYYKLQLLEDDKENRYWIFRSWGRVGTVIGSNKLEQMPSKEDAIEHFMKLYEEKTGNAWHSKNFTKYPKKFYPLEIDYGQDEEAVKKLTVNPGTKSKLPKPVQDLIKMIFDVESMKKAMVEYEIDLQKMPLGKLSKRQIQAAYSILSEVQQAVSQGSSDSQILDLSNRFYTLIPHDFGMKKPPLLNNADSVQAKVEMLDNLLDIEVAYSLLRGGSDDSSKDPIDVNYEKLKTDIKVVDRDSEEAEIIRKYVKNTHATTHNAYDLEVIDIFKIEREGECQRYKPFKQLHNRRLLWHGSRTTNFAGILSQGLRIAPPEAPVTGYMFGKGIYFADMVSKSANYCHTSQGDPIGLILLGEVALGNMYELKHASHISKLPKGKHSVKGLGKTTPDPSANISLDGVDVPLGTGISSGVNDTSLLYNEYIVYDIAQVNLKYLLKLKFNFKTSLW

`COc1ccc2c(c1OC)c(=O)n1c3ccc(O)cc3c3ccnc2c31` [MW01, 12-hydroxy-6,7-dimethoxy-8H-benzo[c]indolo[3,2,1-ij][1,5]naphthyridin-8-one]: in assay [1], the “induced NF-κB DNA binding activity upon TNFα stimulation” value is “did not interfere with induced NF-κB DNA binding activity”. For the same compound, in assay [2], the “phosphorylation of IKKγ at S85” value is on record as “abolished”. Further, the PARP1 cleavage entry in assay [3] (8 h post γ-IR) is “strongly increased”; in assay [3] (resting cells), “slight increase”. In assay [4] (HEK293, after irradiation), the “less viable cells after irradiation” value is roughly 17%. In assay [4] (HEK293, non-irradiated), the “percentage of viable cells compared to the DMSO control” value is “slightly reduced”. Also, the “interaction of IKKγ with PARP1, p-ATM S1981 or PIASy” value in assay [5] was “abrogation of the interaction”. Moreover, the “PAR chain formation / PARP1 enzymatic activity” value in assay [6] was “did not interfere with activation of PARP1 enzymatic activity”. In assay [7], the “population of early apoptotic cells” value is given as “roughly doubled”. For the same compound, in assay [7] (8 h after irradiation), the “annexin V staining compared to the irradiated control” value is reported as “significant increase”.
